Measurements taken from patent US20060014712A1, “Controlled delivery of therapeutic compounds” (CeMines, Inc., priority 2004, published 2006).

Key:
B16 [1] = assay: Apoptosis, Annexin V-Cy3 Apoptosis Kit; format: cell-based, mouse; conditions: CPP mimicking peptides, conc 10 µM
Description: (§1) Methods. Human melanoma cell lines SK-MEL-28 and WM 2664 and mouse melanoma cell line B16 were obtained from the American Tissue Culture Collection (ATCC). Cells were cultured according to recommendations of ATCC (DMEM, 10% FCS, penicillin+streptomycin) and used in experiments after two passages in the laboratory. Cells were grown in 24 well plates, each treatment in triplicates. Cells were plated 16 hours prior treatments started. Peptides were added to the media, and media was changed every day during 7 day experiment. CPP concentration was 10 μM Apoptosis was analyzed using Biovision Annexin V-Cy3 Apoptosis Kit according to manufacturers protocols.

B16 [2] = assay: Cell counting after 7 day peptide treatment; format: cell-based, mouse; conditions: CPP mimicking peptides, conc 10 µM, start count 10
Description: The ability to block interaction of MITF, SOX10 and STAT3 with active transcriptional complex and inhibit proliferation and stimulate apoptosis of melanoma cells were tested on human melanoma cell lines SK-MEL-28 and WM 266-4, and mouse melanoma cell line B16. Methods. Human melanoma cell lines SK-MEL-28 and WM 2664 and mouse melanoma cell line B16 were obtained from the American Tissue Culture Collection (ATCC). Cells were cultured according to recommendations of ATCC (DMEM, 10% FCS, penicillin+streptomycin) and used in experiments after two passages in the laboratory. Cells were grown in 24 well plates, each treatment in triplicates. Cells were plated 16 hours prior treatments started. Peptides were added to the media, and media was changed every day during 7 day experiment. […] Cells were precipitated and resuspended in 100 μl of PBS, and 5 μl were removed for counting

SK-MEL-28 [3] = assay: Cell counting after 7 day peptide treatment; format: cell-based, human; conditions: conc 10 µM, start count 10
Description: (§2) The ability to block interaction of MITF, SOX10 and STAT3 with active transcriptional complex and inhibit proliferation and stimulate apoptosis of melanoma cells were tested on human melanoma cell lines SK-MEL-28 and WM 266-4, and mouse melanoma cell line B16. Methods. Human melanoma cell lines SK-MEL-28 and WM 2664 and mouse melanoma cell line B16 were obtained from the American Tissue Culture Collection (ATCC). Cells were cultured according to recommendations of ATCC (DMEM, 10% FCS, penicillin+streptomycin) and used in experiments after two passages in the laboratory. Cells were grown in 24 well plates, each treatment in triplicates. Cells were plated 16 hours prior treatments started. Peptides were added to the media, and media was changed every day during 7 day experiment. CPP concentration was 10 μM For cell counting, cells were trypsinized (0.25% Trypsin, 2 mM EDTA) in Ca^+2, Mg^+2 free PBS. Cells were precipitated and resuspended in 100 μl of PBS, and 5 μl were removed for counting Methods. Human melanoma cell lines SK-MEL-28 and WM 266-4 were obtained from the American Tissue Culture Collection (ATCC) and were cultured according to recommendations of ATCC (DMEM, 10% FCS, penicillin+streptomycin). Human keratinocytes were obtained from Clonetics and cultured according to manufacturers protocol. Cells were used in experiments after two passages in the laboratory. Cells were grown in 24 well plates, each treatment in triplicates. Cells were plated 16 hours prior treatments started. Peptides were added to the media, and media was changed every day during 7 day experiment. CPP concentration was 10 μM. For cell counting, cells were trypsinized (0.25% Trypsin, 2 mM EDTA) in Ca, Mg free PBS. Cells were precipitated and resuspended in 100 μl of PBS, and 5 μl were removed for counting.

Dct/Trp2 promoter [4] = assay: Transient CAT assay, Dct/Trp2 proximal promoter-CAT construct in WM 266-4; format: cell-based, human; conditions: CPP concentration 10 μM
Description: (§3) SOX10 and MITF interact with the proximal promoter of Dct/Trp2 gene and induces its activity (Ludwig A. et al., FEBS Lett. 556 (1-3):236-244 (2004)). Thus, a Dct/Trp2 proximal promoter reporter construct was used to analyze effect of mimicking peptides on promoter activity using transient CAT assay.
(§4) Methods. Human melanoma cell lines SK-MEL-28 and WM 266-4 were obtained from the American Tissue Culture Collection (ATCC) and were cultured according to recommendations of ATCC (DMEM, 10% FCS, penicillin+streptomycin). Dct/Trp2 proximal promoter-CAT construct (Ludwig et al., supra) was used in all experiments.
(§5) Cells were transfected by using FuGene reagent (Roche Molecular Biochemicals) according to manufacturer's instructions. Freeze-thaw lysates of cells collected 48 h after the transfection were assayed for CAT activity as described (Pothier, F. et al., DNA Cell Biol. 11(1):83-90 (1992)). At least two different DNA preparations were tested for each plasmid. To normalize the transfection efficiencies, cells were cotransfected with pON260 expressing β-galactosidase (Spaete, R. R. and Mocarski, E. S., J. Virol. 54(3):817-24 (1985); Spaete, R. R. and Mocarski, E. S., J. Virol. 56(1):13543 (1985)). All the CAT activities were normalized to total protein and β-galatosidase activity.
(§6) Following transfection, cells were grown in 6 well plates, each treatment in triplicates. Peptides were added to the media and media was changed every day during the 7 day experiment. CPP concentration was 10 μM.

WM 266-4 [5] = assay: Apoptosis, Annexin V-Cy3 Apoptosis Kit; format: cell-based, human; conditions: conc 10 µM
Description: as §1, with “[…] Methods. Human melanoma cell lines SK-MEL-28 and WM 266-4 were obtained from the American Tissue Culture Collection (ATCC) and were cultured according to recommendations of ATCC (DMEM, 10% FCS, penicillin+streptomycin). Human keratinocytes were obtained from Clonetics and cultured according to manufacturers protocol. Cells were used in experiments after two passages in the laboratory. Cells were grown in 24 well plates, each treatment in triplicates. Cells were plated 16 hours prior treatments started. Peptides were added to the media, and media” for “CPP concentration”, “changed every day during 7 day experiment. […]” for “10 μM”

Dct/Trp2 promoter [6] = assay: Transient CAT assay, Dct/Trp2 proximal promoter-CAT construct in SK-MEL-28; format: cell-based, human; conditions: CPP concentration 10 μM
Description: as §3, §4, §5, §6

SK-MEL-28 [7] = assay: WST-1 test (mitochondrial activity); format: cell-based, human; conditions: conc 10 µM, untreated = 1
WM 266-4 [8] = assay: Cell counting after 7 day peptide treatment; format: cell-based, human; conditions: conc 10 µM, start count 10
Description: as §2, with “CPP concentration was 10 μM For cell counting, cells were trypsinized (0.25% Trypsin, 2 mM EDTA) in Ca^+2, Mg^+2 free PBS.” left out, “CPP concentration was 10 μM.” left out

B16 melanoma = assay: Mouse tumor xenograft model, peptide membrane patch on skin melanoma; format: in vivo; conditions: patch immersed in 100 μM peptide solution, start = 100; for tumor size change (%) 1 d: B16 s.c. in C57BL/6 mice
Description: The effect of modified mimicking peptides was analyzed by inducing melanomas in mouse skin by grafting suspension of melanoma cells. […] Tumor diameter was measured 1, 2, 3, 5, 7 days after treatmet started.
Methods. Mouse melanoma cell line B16 was cultured as described above, and approximately 5×10^6 cells were injected subcutaneously into the left and right limbs of three C57BL/6JOIaHsd mice.
Administration. Cellulose membrane was immersed in a solution of peptides (100 μM). Size of tumor was measured 1, 2, 3, 5 and 7 days following patch treatment. At the same time new patch was applied. All experiments were done in triplicates (3 animals per group).

WM 266-4 [9] = assay: WST-1 test (mitochondrial activity); format: cell-based, human; conditions: modified peptides, conc 10 µM, untreated = 1
Description: Methods. Human melanoma cell lines SK-MEL-28 and WM 2664 and mouse melanoma cell line B16 were obtained from the American Tissue Culture Collection (ATCC). Cells were cultured according to recommendations of ATCC (DMEM, 10% FCS, penicillin+streptomycin) and used in experiments after two passages in the laboratory. Cells were grown in 24 well plates, each treatment in triplicates. Cells were plated 16 hours prior treatments started. Peptides were added to the media, and media was changed every day during 7 day experiment. […] Methods. Human melanoma cell lines SK-MEL-28 and WM 266-4 were obtained from the American Tissue Culture Collection (ATCC) and were cultured according to recommendations of ATCC (DMEM, 10% FCS, penicillin+streptomycin). Human keratinocytes were obtained from Clonetics and cultured according to manufacturers protocol. Cells were used in experiments after two passages in the laboratory. Cells were grown in 24 well plates, each treatment in triplicates. Cells were plated 16 hours prior treatments started. Peptides were added to the media, and media was changed every day during 7 day experiment. […] WST-1 test was performed to measure mitochondrial activity, which can also be used as a measure of cell number.

Human keratinocytes [10] = assay: Apoptosis, Annexin V-Cy3 Apoptosis Kit; format: cell-based; conditions: keratinocyte, modified peptides, conc 10 µM
Human keratinocytes [11] = assay: WST-1 test (mitochondrial activity); format: cell-based; conditions: keratinocyte; modified peptides; conc 10 µM; untreated = 1
Description: Methods. Human melanoma cell lines SK-MEL-28 and WM 266-4 were obtained from the American Tissue Culture Collection (ATCC) and were cultured according to recommendations of ATCC (DMEM, 10% FCS, penicillin+streptomycin). Human keratinocytes were obtained from Clonetics and cultured according to manufacturers protocol. Cells were used in experiments after two passages in the laboratory. Cells were grown in 24 well plates, each treatment in triplicates. Cells were plated 16 hours prior treatments started. Peptides were added to the media, and media was changed every day during 7 day experiment. […] WST-1 test was performed to measure mitochondrial activity, which can also be used as a measure of cell number.

Human keratinocytes [12] = assay: Cell counting after 7 day peptide treatment; format: cell-based; conditions: keratinocyte, modified peptides, conc 10 µM, start count 10
Description: Methods. Human melanoma cell lines SK-MEL-28 and WM 266-4 were obtained from the American Tissue Culture Collection (ATCC) and were cultured according to recommendations of ATCC (DMEM, 10% FCS, penicillin+streptomycin). Human keratinocytes were obtained from Clonetics and cultured according to manufacturers protocol. Cells were used in experiments after two passages in the laboratory. Cells were grown in 24 well plates, each treatment in triplicates. Cells were plated 16 hours prior treatments started. Peptides were added to the media, and media was changed every day during 7 day experiment. CPP concentration was 10 μM. For cell counting, cells were trypsinized (0.25% Trypsin, 2 mM EDTA) in Ca, Mg free PBS. Cells were precipitated and resuspended in 100 μl of PBS, and 5 μl were removed for counting.

[13] = modified (inhibitor/MMP2, MMP9 site) peptides

Row | Sequence | Cell Count 7 d (SK-MEL-28 [3]; [13]) | tumor size change (%) 1 d (B16 melanoma) | tumor size change (%) 2 d (B16 melanoma) | tumor size change (%) 3 d (B16 melanoma) | tumor size change (%) 5 d (B16 melanoma) | tumor size change (%) 7 d (B16 melanoma) | WST-1 7 d (WM 266-4 [9]) | Apoptosis 7 d/% (Human keratinocytes [10]) | WST-1 7 d (Human keratinocytes [11]) | WST-1 7 d (SK-MEL-28 [7]; modified peptides) | Cell Count 7 d (Human keratinocytes [12]) | Cell Count 7 d (WM 266-4 [8]; modified peptides) | further results
1 | RPKKRKVRRRKMQQLEQMLTALDQMRRSIVSELAGLLS [STAT3-int1] | – | – | – | – | – | – | – | – | – | – | – | – | Apoptosis 7 d/% (B16 [1]): 28%; Cell Count 7 d (B16 [2]): 59; Cell Count 7 d (SK-MEL-28 [3]; CPP mimicking peptides): 40; Dct/Trp2 promoter activity (CAT assay) (Dct/Trp2 promoter [4]): do not have significant effect; Apoptosis 7 d/% (WM 266-4 [5]; CPP mimicking peptides): 10%; Dct/Trp2 promoter activity (CAT assay) (Dct/Trp2 promoter [6]): do not have significant effect; WST-1 7 d (SK-MEL-28 [7]; CPP mimicking peptides): 0.79; Cell Count 7 d (WM 266-4 [8]; CPP mimicking peptides): 34
2 | TTGGSSPQGLEAKRPKKRKVRRRKMQQLEQMLTALDQMRRSIVSELAGLLS [STAT3-int1M] | 42 | 109% | 124% | 154% | 181% | 217% | 0.91 | 2% | 1 | 0.84 | 41 | – | Apoptosis 7 d/% (WM 266-4 [5]; modified peptides): 13%
3 | TTGGSSPQGLEAKRPKKRKVRRRQLMLEPYALDMSRIRVLSESLGLATQSG [Scr-int1M, reference compound] | 48 | 109% | 147% | 175% | 211% | 272% | 1 | – | 1 | 1 | 40 | 30 | –
4 | TTGGSSPQGLEAKRPKKRKVRRRVKRPMNAFMVWAQAARRKLADQY [SOX10-int1M] | 35 | 111% | 127% | 146% | 171% | 224% | 0.7 | 6% | 0.93 | 0.72 | 37 | 22 | –
